Data: PMC7561186, “Rational design of balanced dual-targeting antibiotics with limited resistance” (PLoS Biology, 2020)
Converted amounts (≈) assume the structure as drawn. Read-outs that look alike come from different tables or passages of the source.

Test system: S. aureus clinical isolates
Test: microbe, parasite or virus in culture
Assay type: cell-based
Conditions: Staphylococcus aureus, read-out: MIC

CC[C@H]1OC(=O)[C@H](C)[C@@H](O[C@H]2C[C@@](C)(OC)[C@@H](O)[C@H](C)O2)[C@H](C)[C@@H](O[C@@H]2O[C@H](C)C[C@H](N(C)C)[C@H]2O)[C@](C)(O)C[C@@H](C)CN(C)[C@H](C)[C@@H](O)[C@]1(C)O [Azithromycin]
MIC (MRSA, S. aureus IHMA 1621638, MRSA / VSSA): 1 µg/mL (≈ 1.34 µM)
MIC (MRSA, S. aureus IHMA 1622252, MRSA / VSSA): 1 µg/mL (≈ 1.34 µM)
MIC (MRSA, S. aureus IHMA 1622527, MRSA / VSSA): 1 µg/mL (≈ 1.34 µM)
MIC (MRSA, S. aureus IHMA 1666371, MRSA / VSSA): 0.25 µg/mL (≈ 0.334 µM)
MIC (MRSA, S. aureus IHMA 1695391, MRSA / VSSA): > 32 µg/mL
MIC (MRSA, S. aureus IHMA 1703428, MRSA / VSSA): 0.5 µg/mL (≈ 0.668 µM)
MIC (MRSA, S. aureus IHMA 1720350, MRSA / VSSA): 32 µg/mL (≈ 42.7 µM)
MIC (MRSA, S. aureus IHMA 1732989, MRSA / VSSA): > 32 µg/mL
MIC (MRSA, S. aureus IHMA 1742231, MRSA / VSSA): > 32 µg/mL
MIC (MRSA, S. aureus IHMA 1766357, MRSA / VSSA): 1 µg/mL (≈ 1.34 µM)
MIC (MSSA / NRS 12 / VISA, S. aureus IHMA 1308244, NRS12, MSSA / VISA): 0.5 µg/mL (≈ 0.668 µM)
MIC (MSSA / NRS 13 / VISA, S. aureus IHMA 1308245, NRS13, MSSA / VISA): 1 µg/mL (≈ 1.34 µM)
MIC (MSSA / NRS 14 / VISA, S. aureus IHMA 1308246, NRS14, MSSA / VISA): 0.5 µg/mL (≈ 0.668 µM)
MIC (MSSA / NRS 17 / VISA, S. aureus IHMA 1308247, NRS17, MSSA / VISA): 8 µg/mL (≈ 10.7 µM)
MIC (MSSA / NRS 28 / VISA, S. aureus IHMA 1308249, NRS28, MSSA / VISA): > 32 µg/mL
MIC (MSSA / NRS 52, S. aureus IHMA 1308252, NRS52, MSSA / VSSA* (*Expected VAN intermediate, confirmed VAN susceptible twice), test date 2018-11-07): 0.25 µg/mL (≈ 0.334 µM)
MIC (MSSA / USA100 / VRSA, S. aureus IHMA 672236, VRS6, MSSA / VRSA, USA100): > 32 µg/mL
MIC (MSSA, S. aureus IHMA 1563826, MSSA / VSSA): 1 µg/mL (≈ 1.34 µM)
MIC (MSSA, S. aureus IHMA 1565492, MSSA / VSSA): 1 µg/mL (≈ 1.34 µM)
MIC (MSSA, S. aureus IHMA 1569499, MSSA / VSSA): 0.5 µg/mL (≈ 0.668 µM)
MIC (MSSA, S. aureus IHMA 1569754, MSSA / VSSA): > 32 µg/mL
MIC (MSSA, S. aureus IHMA 1574202, MSSA / VSSA): 0.5 µg/mL (≈ 0.668 µM)
MIC (MSSA, S. aureus IHMA 1575652, MSSA / VSSA): 1 µg/mL (≈ 1.34 µM)
MIC (MSSA, S. aureus IHMA 1575779, MSSA / VSSA): > 32 µg/mL
MIC (MSSA, S. aureus IHMA 1576329, MSSA / VSSA): 1 µg/mL (≈ 1.34 µM)
MIC (MSSA, S. aureus IHMA 1577800, MSSA / VSSA): 1 µg/mL (≈ 1.34 µM)
MIC (MSSA, S. aureus IHMA 1578560, MSSA / VSSA): 1 µg/mL (≈ 1.34 µM)
MIC (MSSA, S. aureus IHMA 1580233, MSSA / VSSA): > 32 µg/mL
MIC (MSSA, S. aureus IHMA 1580925, MSSA / VSSA): 1 µg/mL (≈ 1.34 µM)
MIC (MSSA, S. aureus IHMA 1580955, MSSA / VSSA): 1 µg/mL (≈ 1.34 µM)
MIC (MSSA, S. aureus IHMA 1582586, MSSA / VSSA): 1 µg/mL (≈ 1.34 µM)
MIC (MSSA, S. aureus IHMA 1582691, MSSA / VSSA): > 32 µg/mL
MIC (MSSA, S. aureus IHMA 1584230, MSSA / VSSA): 1 µg/mL (≈ 1.34 µM)
MIC (MSSA, S. aureus IHMA 1587279, MSSA / VSSA): 1 µg/mL (≈ 1.34 µM)
MIC (MSSA, S. aureus IHMA 1591459, MSSA / VSSA): 0.5 µg/mL (≈ 0.668 µM)
MIC (MSSA, S. aureus IHMA 1592749, MSSA / VSSA): 1 µg/mL (≈ 1.34 µM)
MIC (MSSA, S. aureus IHMA 1592751, MSSA / VSSA): 1 µg/mL (≈ 1.34 µM)
MIC (MSSA, S. aureus IHMA 1594297, MSSA / VSSA): 32 µg/mL (≈ 42.7 µM)
MIC (MSSA, S. aureus IHMA 1597120, MSSA / VSSA): > 32 µg/mL
MIC (MSSA, S. aureus IHMA 1597125, MSSA / VSSA): > 32 µg/mL
MIC (MSSA, S. aureus IHMA 1599157, MSSA / VSSA): 1 µg/mL (≈ 1.34 µM)
MIC (MSSA, S. aureus IHMA 1599506, MSSA / VSSA): 1 µg/mL (≈ 1.34 µM)
MIC (MSSA, S. aureus IHMA 1602078, MSSA / VSSA): > 32 µg/mL
MIC (MSSA, S. aureus IHMA 1604586, MSSA / VSSA): 0.25 µg/mL (≈ 0.334 µM)
MIC (MSSA, S. aureus IHMA 1604609, MSSA / VSSA): 1 µg/mL (≈ 1.34 µM)
MIC (MSSA, S. aureus IHMA 1609919, MSSA / VSSA): > 32 µg/mL
MIC (MSSA, S. aureus IHMA 1622864, MSSA / VSSA): 1 µg/mL (≈ 1.34 µM)
MIC (MSSA, S. aureus IHMA 1626392, MSSA / VSSA): 0.5 µg/mL (≈ 0.668 µM)
MIC (MSSA, S. aureus IHMA 1713793, MSSA / VSSA): 1 µg/mL (≈ 1.34 µM)
